Biological target: FXR (Homo sapiens (Human), UniProt Q96RI1)
Test: transient human FXR/Gal4-luciferase reporter assay
Assay type: cell-based
Conditions: not given
Method: A Gal4-hFXR fusion construct reporter system was used as the primary assay to characterize compound activity. A construct including 5 copies of the Gal4 promoter response element upstream of a firefly luciferase reporter cDNA was stably expressed in HEK293 cells. This reporter cell line was maintained in Dulbecco's Modified Eagle's medium (DMEM; Gibco) supplemented with 1% penicillin-streptomycin (P/S) solution, 500 μg/mL Zeocin and 10% charcoal/dextran-treated fetal bovine serum (cs-FBS) at 37° C. in a humidified 5% CO2 atmosphere. Another plasmid was constructed in which the human cytomegalovirus promoter in the pcDNA3.1 vector directs the expression of the cDNA encoding a fusion protein comprised of the DNA binding domain from the Gal4 transcription factor fused to the ligand binding domain from human FXR.
The day prior to transfection, the reporter cells in culture are detached from the plate with trypsin and plated into a T75 flask at a sufficient density to achieve approximately 90% confluence the next morning. The transfection reagents are prepared by separately diluting 25 μg of the pcDNA3.1-Gal4-FXR plasmid into 1.87 mL of Opti-MEM (Thermo-Fisher), and 40 μL of Lipofectamine 2000 (Thermo-Fisher) into 1.87 mL of Opti-MEM, and then adding the diluted DNA solution into the diluted Lipofectamine 2000 solution and incubating at room temperature for 15-20 minutes. The mixture is further diluted with 10 mL of a solution comprised of DMEM, 10% cs-FBS, and 1% P/S immediately prior to transferring to the cells. The maintenance culture media is aspirated from the cells and the final transfection mixture is added before the cells are incubated overnight at 37° C. in a humidified 5% CO2 atmosphere. This protocol can be scaled up, and the transiently transfected cells can be cryopreserved in an assay-ready format.
For compound testing, 100 nL of the compounds (serial dilutions in DMSO) are dispensed with an Echo acoustic dispenser (Labcyte) into the wells of a Corning/Costar clear bottom 384-well white plate. The transfected cells are harvested, counted, and diluted such that 10-25,000 cells in 25 μL are plated into each well of the 384-well compound assay plate. The compound-treated cells are incubated overnight at 37° C. in a humidified 5% CO2 atmosphere. The next morning 25 μL of Steady-Glo (Promega) are added to each well of the plate, the mixture is incubated for 15 min. with shaking, and luminescence is measured on an Envision (Perkin Elmer) plate reader.

Chain of FXR (Q96RI1 262-486): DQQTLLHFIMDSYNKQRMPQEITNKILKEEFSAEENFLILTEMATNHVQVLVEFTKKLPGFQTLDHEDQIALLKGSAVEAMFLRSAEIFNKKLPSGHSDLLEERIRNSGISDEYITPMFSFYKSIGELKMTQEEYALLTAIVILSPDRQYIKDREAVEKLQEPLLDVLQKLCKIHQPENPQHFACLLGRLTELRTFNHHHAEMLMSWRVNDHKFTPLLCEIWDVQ

Q: Which EC50 does the source give for O=C(N(CC12CCC(c3ccc(C(F)(F)F)cn3)(CC1)CC2)c1cccc(-c2ncc(OC(F)F)cn2)c1)C12CC(F)(C1)C2 [Example 499, N-(3-(5-(difluoromethoxy)pyrimidin-2-yl)phenyl)-3-fluoro-N-((4-(5-(trifluoromethyl)pyridin-2-yl)bicyclo[2.2.2]octan-1-yl)methyl)bicyclo[1.1.1]pentane-1-carboxamide] here?
A: The EC50 was 0.135 µM.

Q: How did the EC50 turn out when CCOc1ccc(-c2cncc(N(CC34CCC(c5nc(C(C)(C)C)no5)(CC3)CC4)C(=O)C34CC(F)(C3)C4)c2)cc1 [Example 476, N-((4-(3-(tert-butyl)-1,2,4-oxadiazol-5-yl)bicyclo[2.2.2]octan-1-yl)methyl)-N-(5-(4-ethoxyphenyl)pyridin-3-yl)-3-fluorobicyclo[1.1.1]pentane-1-carboxamide] was run?
A: The EC50 was 0.56 µM.

Q: For Cc1nc2ccc(-c3cccc(N(CC45CCC(c6nc(C7CC7)no6)(CC4)OC5)C(=O)C4CC(F)(F)C4)c3)cc2s1 [Example 565, N-((1-(3-cyclopropyl-1,2,4-oxadiazol-5-yl)-2-oxabicyclo[2.2.2]octan-4-yl)methyl)-3,3-difluoro-N-(3-(2-methylbenzo[d]thiazol-6-yl)phenyl)cyclobutane-1-carboxamide], which EC50 is on record?
A: The EC50 was 0.947 µM.

Q: With CCOc1ccc(-c2cccc(N(CC34CCC(c5noc(C(F)F)n5)(CC3)CC4)C(=O)C34CC(F)(C3)C4)c2)cc1 [Example 461, N-((4-(5-(difluoromethyl)-1,2,4-oxadiazol-3-yl)bicyclo[2.2.2]octan-1-yl)methyl)-N-(4′-ethoxy-[1,1′-biphenyl]-3-yl)-3-fluorobicyclo[1.1.1]pentane-1-carboxamide] as the compound, how does the EC50 read?
A: The EC50 was 0.603 µM.

Q: With CCOc1ncc(-c2cccc(N(CC34CCC(c5noc(C(C)(F)F)n5)(CC3)CC4)C(=O)C34CC(F)(C3)C4)c2)cn1 [Example 529, N-((4-(5-(1,1-difluoroethyl)-1,2,4-oxadiazol-3-yl)bicyclo[2.2.2]octan-1-yl)methyl)-N-(3-(2-ethoxypyrimidin-5-yl)phenyl)-3-fluorobicyclo[1.1.1]pentane-1-carboxamide] as the compound, how does the EC50 read?
A: The EC50 was 0.106 µM.

Q: How did the EC50 turn out when CC(C)(C)c1nc(C23CCC(CN(C(=O)C45CC(F)(C4)C5)c4cc(-c5ccc(OC(F)F)cc5)ccn4)(CC2)CC3)no1 [Example 533, N-((4-(5-(tert-butyl)-1,2,4-oxadiazol-3-yl)bicyclo[2.2.2]octan-1-yl)methyl)-N-(4-(4-(difluoromethoxy)phenyl)pyridin-2-yl)-3-fluorobicyclo[1.1.1]pentane-1-carboxamide] was run?
A: The EC50 was 0.026 µM.

Same assay, conditions: Gal4-hFXR fusion construct, HEK293 reporter cells; response relative to 8 μM GW-4064

Q: With O=C(N(CC12CCC(c3nc(C4CC4)no3)(CC1)CC2)c1cccc(-c2cc(Br)cn3ncnc23)c1)C12CC(F)(C1)C2 [Example 326, N-(3-(6-bromo-[1,2,4]triazolo[1,5-a]pyridin-8-yl)phenyl)-N-((4-(3-cyclopropyl-1,2,4-oxadiazol-5-yl)bicyclo[2.2.2]octan-1-yl)methyl)-3-fluorobicyclo[1.1.1]pentane-1-carboxamide] as the compound, how does the EC50 read?
A: The EC50 was 0.782 µM.

Q: CC(C)(O)c1ccc(-c2cccc(N(CC34CCC(c5noc(C(F)(F)F)n5)(CC3)CC4)C(=O)NCC3CC4(CC4)C3)c2)cc1 [Example 614, 1-(4′-(2-hydroxypropan-2-yl)-[1,1′-biphenyl]-3-yl)-3-(spiro[2.3]hexan-5-ylmethyl)-1-((4-(5-(trifluoromethyl)-1,2,4-oxadiazol-3-yl)bicyclo[2.2.2]octan-1-yl)methyl)urea] was tested. Which EC50 did it give?
A: The EC50 was 0.171 µM.

Q: For CC(C)(C#N)Oc1ccc(-c2ccnc(N(CC34CCC(c5ccc(C(C)(F)F)cn5)(CC3)CC4)C(=O)OC(C)(C)C(F)(F)F)c2)cc1 [Example 606, 1,1,1-trifluoro-2-methylpropan-2-yl (4-(4-((2-cyanopropan-2-yl)oxy)phenyl)pyridin-2-yl)((4-(5-(1,1-difluoroethyl)pyridin-2-yl)bicyclo[2.2.2]octan-1-yl)methyl)carbamate], which EC50 is on record?
A: The EC50 was 0.095 µM.

Q: With Cc1nc2cc(-c3cccc(N(CC45CCC(c6nc(C7CC7)no6)(CC4)CC5)C(=O)C45CC(F)(C4)C5)c3)ccc2s1 [Example 303, N-((4-(3-cyclopropyl-1,2,4-oxadiazol-5-yl)bicyclo[2.2.2]octan-1-yl)methyl)-3-fluoro-N-(3-(2-methylbenzo[d]thiazol-5-yl)phenyl)bicyclo[1.1.1]pentane-1-carboxamide] as the compound, how does the EC50 read?
A: Its EC50 is 0.349 µM.

Q: Which EC50 does the source give for CC1(c2nc(C34CCC(CN(C(=O)C56CC(F)(C5)C6)c5cccc(-c6ccc(NS(C)(=O)=O)cc6)c5)(CC3)CC4)no2)CC1 [Example 398, 3-fluoro-N-((4-(5-(1-methylcyclopropyl)-1,2,4-oxadiazol-3-yl)bicyclo[2.2.2]octan-1-yl)methyl)-N-(4′-(methylsulfonamido)-[1,1′-biphenyl]-3-yl)bicyclo[1.1.1]pentane-1-carboxamide] here?
A: The EC50 was 0.093 µM.

Q: Which EC50 does the source give for CS(=O)(=O)Nc1ccc(-c2cccc(N(CC34CCC(c5ccc(C6(C#N)CC6)cc5)(CC3)OC4)C(=O)C34CC(F)(C3)C4)c2)cc1 [Example 345, N-((1-(4-(1-Cyanocyclopropyl)phenyl)-2-oxabicyclo[2.2.2]octan-4-yl)methyl)-3-fluoro-N-(4′-(methylsulfonamido)-[1,1′-biphenyl]-3-yl)bicyclo[1.1.1]pentane-1-carboxamide] here?
A: Its EC50 is 0.264 µM.

Q: For COc1ncc(-c2cccc(N(CC34CCC(c5noc(C6(C)CC6)n5)(CC3)CC4)C(=O)C34CC(F)(C3)C4)c2)cn1 [Example 400, 3-fluoro-N-(3-(2-methoxypyrimidin-5-yl)phenyl)-N-((4-(5-(1-methylcyclopropyl)-1,2,4-oxadiazol-3-yl)bicyclo[2.2.2]octan-1-yl)methyl)bicyclo[1.1.1]pentane-1-carboxamide], which EC50 is on record?
A: The EC50 was 0.051 µM.

Q: COc1cc(-c2cccc(N(CC34CCC(c5nnc(C)o5)(CC3)CC4)C(=O)C3CCC3)c2)ccn1 [Example 231, N-(3-(2-methoxypyridin-4-yl)phenyl)-N-((4-(5-methyl-1,3,4-oxadiazol-2-yl)bicyclo[2.2.2]octan-1-yl)methyl)cyclobutanecarboxamide] was tested. Which EC50 did it give?
A: Its EC50 is 0.592 µM.

Q: Which EC50 does the source give for CCOc1ccc(-c2cccc(N(CC34CCC(c5noc(C6(C)CC6)n5)(CC3)CC4)C(=O)C34CC(F)(C3)C4)c2)cn1 [Example 401, N-(3-(6-ethoxypyridin-3-yl)phenyl)-3-fluoro-N-((4-(5-(1-methylcyclopropyl)-1,2,4-oxadiazol-3-yl)bicyclo[2.2.2]octan-1-yl)methyl)bicyclo[1.1.1]pentane-1-carboxamide] here?
A: Its EC50 is 0.042 µM.

Q: With CCOc1ncc(-c2cccc(N(CC34CCC(c5cc(C6CC6)nn5C)(CC3)CC4)C(=O)C34CC(F)(C3)C4)c2)cn1 [Example 413, N-((4-(3-cyclopropyl-1-methyl-1H-pyrazol-5-yl)bicyclo[2.2.2]octan-1-yl)methyl)-N-(3-(2-ethoxypyrimidin-5-yl)phenyl)-3-fluorobicyclo[1.1.1]pentane-1-carboxamide] as the compound, how does the EC50 read?
A: Its EC50 is 0.192 µM.

Q: For CS(=O)(=O)Nc1ccc(-c2cncc(N(CC34CCC(c5nc(C6CC6)no5)(CC3)CC4)C(=O)C34CC(F)(C3)C4)c2)cc1 [Example 427], which EC50 is on record?
A: The EC50 was 0.671 µM.

Q: For CCOc1ncc(-c2cccc(N(CC34CCC(c5noc(C(C)(C)C)n5)(CC3)CC4)C(=O)C34CC(F)(C3)C4)c2)cn1 [Example 437, N-((4-(5-(tert-butyl)-1,2,4-oxadiazol-3-yl)bicyclo[2.2.2]octan-1-yl)methyl)-N-(3-(2-ethoxypyrimidin-5-yl)phenyl)-3-fluorobicyclo[1.1.1]pentane-1-carboxamide], which EC50 is on record?
A: Its EC50 is 0.039 µM.

Q: How did the EC50 turn out when Cc1nc2ccc(-c3cccc(N(CC45CCC(c6ccc(C(=O)N(C)C)cc6)(CC4)OC5)C(=O)C45CC(F)(C4)C5)c3)cc2s1 [Example 569, N-((1-(4-(dimethylcarbamoyl)phenyl)-2-oxabicyclo[2.2.2]octan-4-yl)methyl)-3-fluoro-N-(3-(2-methylbenzo[d]thiazol-6-yl)phenyl)bicyclo[1.1.1]pentane-1-carboxamide] was run?
A: The EC50 was 2.22 µM.

Q: Which EC50 does the source give for CC(C)(O)c1ccc(-c2ccnc(N(CC34CCC(c5noc(C(C)(C)F)n5)(CC3)CC4)C(=O)OC(C)(C)C(F)(F)F)c2)cc1 [Example 634, 1,1,1-trifluoro-2-methylpropan-2-yl((4-(5-(2-fluoropropan-2-yl)-1,2,4-oxadiazol-3-yl)bicyclo[2.2.2]octan-1-yl)methyl)(4-(4-(2-hydroxypropan-2-yl)phenyl)pyridin-2-yl) carbamate] here?
A: Its EC50 is 0.031 µM.

Q: N#Cc1ccc(-c2cccc(N(CC34CCC(c5nc(C6CC6)no5)(CC3)CC4)C(=O)C34CC(F)(C3)C4)c2)c2cccnc12 [Example 311, N-(3-(8-cyanoquinolin-5-yl)phenyl)-N-((4-(3-cyclopropyl-1,2,4-oxadiazol-5-yl)bicyclo[2.2.2]octan-1-yl)methyl)-3-fluorobicyclo[1.1.1]pentane-1-carboxamide] was tested. Which EC50 did it give?
A: The EC50 was 0.662 µM.

— US11254663B2 (BRISTOL-MYERS SQUIBB COMPANY, priority 2019, dated 2022)
